Data: patent publication US20230141603A1, “BENZODIAZEPINE DERIVATIVES AS GABA A GAMMA1 PAM” (Hoffmann-La Roche Inc., priority 2021, published 2023)
pKi: −log10 of the molar value.

Key:
h-GABAA α2β2γ1 [1] = target: T1, h-GABAA α2β2γ1 (Homo sapiens, UniProt P47869+Q8N1C3); experiment: Radioligand binding assay, [3H]RO7239181 competition, HEK293F membranes; set-up: signal peptide of human GABAA α5 subunit (Met1 to Ser31), replacing the α2 signal peptide (N); expressed in transfected cells; host or cells: HEK293F cells (ThermoFisher R79007), membranes
T1 sequence (P47869 29-451): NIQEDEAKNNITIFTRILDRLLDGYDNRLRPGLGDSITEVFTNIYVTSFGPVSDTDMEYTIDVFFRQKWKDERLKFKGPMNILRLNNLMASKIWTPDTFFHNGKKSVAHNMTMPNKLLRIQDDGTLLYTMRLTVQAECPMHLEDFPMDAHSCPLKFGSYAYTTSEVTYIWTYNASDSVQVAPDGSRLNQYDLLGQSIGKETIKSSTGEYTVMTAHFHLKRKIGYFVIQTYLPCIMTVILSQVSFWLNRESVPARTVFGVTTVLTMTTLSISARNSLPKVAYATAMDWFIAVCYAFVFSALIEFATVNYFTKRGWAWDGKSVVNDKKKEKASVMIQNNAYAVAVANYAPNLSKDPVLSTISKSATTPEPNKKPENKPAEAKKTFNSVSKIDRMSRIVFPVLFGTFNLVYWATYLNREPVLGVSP
T1 sequence (P47870 25-512 partner limits assumed): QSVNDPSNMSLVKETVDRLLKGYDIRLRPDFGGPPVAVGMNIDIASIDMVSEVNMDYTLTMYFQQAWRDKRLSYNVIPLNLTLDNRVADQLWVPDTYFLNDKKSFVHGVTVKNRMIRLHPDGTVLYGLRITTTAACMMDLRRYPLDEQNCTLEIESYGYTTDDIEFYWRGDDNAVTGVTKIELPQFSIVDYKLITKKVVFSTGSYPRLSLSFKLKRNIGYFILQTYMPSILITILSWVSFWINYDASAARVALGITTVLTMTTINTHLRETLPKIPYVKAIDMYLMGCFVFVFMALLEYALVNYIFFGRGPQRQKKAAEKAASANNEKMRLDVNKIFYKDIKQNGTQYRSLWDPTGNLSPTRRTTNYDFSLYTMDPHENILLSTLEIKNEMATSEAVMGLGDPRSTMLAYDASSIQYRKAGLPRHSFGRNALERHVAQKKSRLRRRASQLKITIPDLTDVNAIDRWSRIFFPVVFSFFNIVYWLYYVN
T1 sequence (Q8N1C3 36-465): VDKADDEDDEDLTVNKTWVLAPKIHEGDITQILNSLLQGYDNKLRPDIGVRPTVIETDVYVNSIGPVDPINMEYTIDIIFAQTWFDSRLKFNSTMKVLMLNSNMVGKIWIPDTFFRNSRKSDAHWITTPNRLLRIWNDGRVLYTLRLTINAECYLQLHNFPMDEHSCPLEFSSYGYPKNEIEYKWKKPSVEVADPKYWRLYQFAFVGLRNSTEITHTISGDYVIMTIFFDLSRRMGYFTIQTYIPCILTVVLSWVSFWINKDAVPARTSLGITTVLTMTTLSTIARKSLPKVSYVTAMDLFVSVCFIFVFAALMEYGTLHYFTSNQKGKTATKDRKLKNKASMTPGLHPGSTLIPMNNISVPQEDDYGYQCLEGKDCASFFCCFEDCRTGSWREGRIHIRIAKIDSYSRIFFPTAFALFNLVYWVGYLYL
Experimental: (§1) The affinity of compounds at GABAA γ1 subunit-containing receptors was measured by competition for [^3H]RO7239181 (67.3 Ci/mmol; Roche) binding to membranes from HEK293F cells (ThermoFisher R79007) expressing human (transiently transfected) receptors of composition […], α2β2γ1, α1β2γ1.
(§2) Harvested pellets from HEK293F cells expressing the different GABAA receptor subtypes were resuspended in Mannitol Buffer pH 7.2-7.4 (Mannitol 0.29M, Triethylamine 10 mM, Acetic acid 10 mM, EDTA 1 mM plus protease inhibitors (20 tablets Complete, Roche Diagnostics Cat. No. 05 056 489 001 per liter)), washed two times and then resuspended at 1:10 to 1:15 dilution in the same buffer. Cell disruption was performed by stirring the suspension in a Parr vessel #4637 at 435 psi for 15 minutes, and then the suspensions were centrifuged at 1000×g for 15 minutes at 4° C. (Beckman Avanti J-HC; rotor JS-4.2). The supernatant (S1) was transferred in a 21 Schott flask and the pellet (P1) was resuspended with Mannitol Buffer up to 175 ml. The resuspended pellet was transferred into a 250 ml Corning centrifugal beaker and centrifuged at 1500×g for 10 minutes at 4° C. (Beckman Avanti J-HC; rotor JS-4.2). The supernatant (S1) was then transferred in the 21 Schott flask and the pellet was discarded. The supernatants (S1) were centrifuged in 500 ml Beckman polypropylene centrifugal beaker at 15′000×g for 30 minutes at 4° C. (Beckman Avanti J-20 XP; rotor JLA-10.500). The pellet (P2) was resuspended with Mannitol Buffer 1:1 and frozen at −80° C. The supernatant (S2) was centrifuged in 100 ml Beckman polypropylene centrifugal tubes at 48000×g for 50 minutes at 4° C. (Beckman Avanti J-20 XP; rotor JA-18). The supernatant (S3) was discarded and the pellet (P3) was resuspended with 1:1 Mannitol Buffer. The P2 and P3 protein concentration was determined with the BIORAD Standard assay method with bovine serum albumin as standard and measured on the NANO-Drop 1000. The membrane suspension was aliquots (500 μl per tube) and stored at −80° C. until required. Membrane homogenates were resuspended and polytronised (Polytron PT1200E Kinematica AG) in Potassium Phosphate 10 mM, KCl 100 mM binding buffer at pH 7.4 to a final assay concentration determined with a previous experiment.
(§3) Assays were incubated to equilibrium for 1 hour at 4° C. and then, membranes were filtered onto unifilter (96-well white microplate with bonded GF/C filters preincubated 20-50 minutes in 0.3% Polyethylenimine) with a Filtermate 196 harvester (Packard BioScience) and washed 4 times with cold Potassium Phosphate 10 mM pH 7.4, KCl 100 mM binding buffer. After drying, filter-retained radioactivity was detected by liquid scintillation counting. Ki values were calculated using Excel-Fit (Microsoft) and are the means of two determinations.

h-GABAA α1β3γ2 = target: T2, h-GABAA α1β3γ2 (Homo sapiens, UniProt P14867+P18507); experiment: Radioligand binding assay, [3H]Flumazenil competition, HEK293F membranes; conditions: for LogSel / γ2/γ1 Selectivity Ratio: Table 3; for LogSel: Log[Ki α1β3γ2 (nM)/Ki α2β2γ1 (nM)]; for γ2/γ1 Selectivity Ratio: Ki α1β3γ2 (nM)/Ki α2β2γ1 (nM)
T2 construct: expressed in transfected cells; host or cells: HEK293F cells, membranes
Experimental: The affinity of compounds at GABAA γ2 subunit-containing receptors was measured by competition for [^3H]Flumazenil (81.1 Ci/mmol; Roche) binding to HEK293F cells expressing human (transiently transfected) receptors of composition α1β3γ2.
Harvested pellets from HEK293F cells expressing the different GABAA γ2 receptor subtypes were resuspended in Mannitol Buffer pH 7.2-7.4 and processed as described above for the cells expressing the GABAA γ1 subunit-containing receptors.
Assays were incubated to equilibrium for 1 hour at 4° C. and harvested onto GF/C uni-filters (Packard) by filtration using a Packard harvester and washing with ice-cold wash buffer (50 mM Tris; pH 7.5). After drying, filter-retained radioactivity was detected by liquid scintillation counting. Ki values were calculated using Excel-Fit (Microsoft) and are the means of two determinations.

h-GABAA α1β2γ1 = target: T3, h-GABAA α1β2γ1 (Homo sapiens, UniProt P14867+Q8N1C3); experiment: Radioligand binding assay, [3H]RO7239181 competition, HEK293F membranes
T3 construct: expressed in transfected cells; host or cells: HEK293F cells (ThermoFisher R79007), membranes
T3 sequence (P14867 28-456): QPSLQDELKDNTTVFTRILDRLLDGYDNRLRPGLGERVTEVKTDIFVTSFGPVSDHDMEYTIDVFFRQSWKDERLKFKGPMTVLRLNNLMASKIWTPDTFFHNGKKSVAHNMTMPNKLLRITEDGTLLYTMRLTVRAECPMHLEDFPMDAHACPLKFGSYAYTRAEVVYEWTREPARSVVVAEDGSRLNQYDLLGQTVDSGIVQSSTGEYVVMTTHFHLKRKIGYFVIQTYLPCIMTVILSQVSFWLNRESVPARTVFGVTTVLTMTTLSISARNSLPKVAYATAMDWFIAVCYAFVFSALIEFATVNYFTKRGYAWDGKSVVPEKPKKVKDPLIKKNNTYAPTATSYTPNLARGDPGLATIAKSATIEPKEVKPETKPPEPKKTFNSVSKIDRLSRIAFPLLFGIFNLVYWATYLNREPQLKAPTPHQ
T3 sequence (P47870 25-512 partner limits assumed): T1 sequence (P47870 25-512 partner limits assumed)
T3 sequence (Q8N1C3 36-465): T1 sequence (Q8N1C3 36-465)
Experimental: as §1, §2, §3

h-GABAA α2β2γ1 [2] = target: T1, h-GABAA α2β2γ1; experiment: Two-electrode voltage clamp electrophysiology in Xenopus oocytes, modulation of GABA EC20 current; format: cell-based; set-up: host or cells: Xenopus laevis oocytes, RNA micro-injection; conditions: α2β2γ1 GABAA receptor subtype expressing oocytes; reference PAMs
Experimental: Xenopus laevis oocytes at maturation stages V-VJ were used for the expression of cloned mRNA encoding GABAA receptor subunits. Oocytes ready for RNA micro-injection were bought from Ecocyte, Castrop-Rauxel, Germany and stored in modified Barth's medium (composition in mM: NaCl 88, KCl 1, NaHCO3 2.4, HEPES 10, MgSO4 0.82, CaNO3 0.33, CaCl2 0.33, pH=7.5) at 20° C. until the experiment.
Oocytes were plated in 96-well plates for microinjection using the Roboinject automated instrument (MultiChannelSystems, Reutlingen, Germany). Approximately 50 nL of an aqueous solution containing the RNA transcripts for the subunits of the desired GABAA receptor subtype was injected into each oocyte. […] Oocytes were kept in modified Barth's medium (composition in mM: NaCl 88, KCl 1, NaHCO3 […], HEPES 10, MgSO4 0.82, CaNO3 0.33, CaCl2 0.33, pH=7.5) at 20° C. until the experiment.
Electrophysiological experiments were performed using the Roboocyte instrument (MultiChannelSystems, Reutlingen, Germany) on days 3 to 5 after the micro-injection of mRNA. During the experiment the oocytes were constantly superfused by a solution containing (in mM) NaCl 90, KCl 1, HEPES 5, MgCl2 1, CaCl2 1 (pH 7.4). Oocytes were impaled by two glass microelectrodes (resistance: 0.5-0.8 MΩ) which were filled with a solution containing KCl 1M+K-acetate 1.5 M and voltage-clamped to −80 mV. The recordings were performed at room temperature using the Roboocyte two-electrode voltage clamp system (Multichannelsystem). After an initial equilibration period of 1.5 min GABA was added for 1.5 min at a concentration evoking approximately 20% of a maximal current response (EC20). After another rest interval of 2.5 min GABA was again added evoking a response of similar amplitude and shape. […] Current traces were recorded at a digitization rate of 10 Hz during and shortly before and after the GABA application.
Each compound and concentration was tested on at least 3 oocytes. Different oocytes were used for different compound concentrations.
For the analysis, the digitized current traces of the first and second GABA response were superimposed and, if necessary, rescaled to equal maximal amplitudes. The ratio between the two responses during the time interval of test compound application was calculated point by point. The extremum of the resulting “ratio trace” was taken as the efficacy (“Fold increase”) of the compound expressed as “% modulation of GABA EC20” (100*(Fold increase−1)).

Structure (SMILES) | pKi (h-GABAA α2β2γ1 [1]) | pKi (h-GABAA α1β3γ2) | LogSel (h-GABAA α1β3γ2) | pKi (h-GABAA α1β2γ1) | γ2/γ1 Selectivity Ratio (h-GABAA α1β3γ2) | potentiation of the GABA-induced current (h-GABAA α2β2γ1 [2])
Cc1nnc2n1-c1ccc(Cl)cc1C(c1ccccc1)=NC2 [Alprazolam, reference compound] | 5.40 | 7.71 | −2.3 | 5.23 |  | 
Clc1ccc2c(c1)C(c1ccccc1)=NCc1nncn1-2 [Estazolam, reference compound] | 5.50 | 7.55 | −2.0 |  |  | 
Cc1nnc2n1-c1ccc(Br)cc1C(c1c(F)cccc1F)=NC2 [RE-A, 8-bromo-6-(2,6-difluorophenyl)-1-methyl-4H-[1,2,4]triazolo[4,3-a][1,4]benzodiazepine, reference compound] | 7.49 | 8.25 | −0.74 |  | 0.18 | 
Cc1nnc2n1-c1ccc(C(F)(F)F)cc1C(c1c(F)cccc1F)=NC2 [RE-B, 6-(2,6-difluorophenyl)-1-methyl-8-(trifluoromethyl)-4H-[1,2,4]triazolo[4,3-a][1,4]benzodiazepine, reference compound] | 7.16 | 7.81 | −0.64 |  | 0.23 | 
Cc1nnc2n1-c1ccccc1C(c1c(F)cccc1F)=NC2 [RE-C, 6-(2,6-difluorophenyl)-1-methyl-4H-[1,2,4]triazolo[4,3-a][1,4]benzodiazepine, reference compound] | 6.20 | 8.24 | −2.0 |  | 0.0092 | 
Cc1nnc2n1-c1cccc(Cl)c1C(c1c(F)cccc1F)=NC2 [RE-G, 7-chloro-6-(2,6-difluorophenyl)-1-methyl-4H-[1,2,4]triazolo[4,3-a][1,4]benzodiazepine, reference compound] | 7.51 | 6.52 | 0.99 |  | 9.8 | 
Cc1nnc2n1-c1ccc(Cl)cc1C(c1ccccc1Cl)=NC2 [Triazolam, reference compound] |  |  | −1.5 |  |  | ~60%
